Measurements from patent US20240027450A1, “COMPOSITIONS AND METHODS FOR […]-COV-2 (COVID-19) AND FOR […]-COV-2-[…] IMM[…]” (QIAGEN SCIENCES LLC, priority 2020, published 2024).

Tested on: T cells in whole blood samples
Experiment: IFN-γ release (QuantiFERON SARS-CoV-2 tubes, ELISA) in whole blood of vaccinated donors, Example 2
Assay type: cell-based, human

phytohemagglutinin [Mit]
IFN-γ, Nil-subtracted (Donor 1, Day 4 after first dose of vaccine): 7.19 IU/mL | IFN-γ, Nil-subtracted (Donor 1, Day 11 after first dose of vaccine): >10 IU/mL | IFN-γ, Nil-subtracted (Donor 2, Day 4 after first dose of vaccine): 5.74 IU/mL | IFN-γ, Nil-subtracted (Donor 2, Day 11 after first dose of vaccine): >10 IU/mL | IFN-γ, Nil-subtracted (Donor 3, Day 4 after first dose of vaccine): 7.07 IU/mL | IFN-γ, Nil-subtracted (Donor 3, Day 11 after first dose of vaccine): >10 IU/mL | IFN-γ, Nil-subtracted (Donor 4, Day 4 after first dose of vaccine): 5.78 IU/mL | IFN-γ, Nil-subtracted (Donor 4, Day 11 after first dose of vaccine): >10 IU/mL | IFN-γ, Nil-subtracted (Donor 5, Day 4 after first dose of vaccine): 7.13 IU/mL | IFN-γ, Nil-subtracted (Donor 5, Day 11 after first dose of vaccine): >10 IU/mL | IFN-γ, Nil-subtracted (Donor 6, Day 4 after first dose of vaccine): 6.59 IU/mL | IFN-γ, Nil-subtracted (Donor 6, Day 11 after first dose of vaccine): >10 IU/mL | IFN-γ, Nil-subtracted (Donor 7, Day 4 after first dose of vaccine, […]): 3.01 IU/mL | IFN-γ, Nil-subtracted (Donor 7, Day 11 after first dose of vaccine): >10 IU/mL | IFN-γ, Nil-subtracted (Donor 8, Day 7 after first dose of vaccine): 7.13 IU/mL | IFN-γ, Nil-subtracted (Donor 9, Day 0 after first dose of vaccine): 6.19 IU/mL | IFN-γ, Nil-subtracted (Donor 9, Day 7 after first dose of vaccine): >10 IU/mL | IFN-γ, Nil-subtracted (Donor 10, Day 7 (Second Dose)): >10 IU/mL | IFN-γ, Nil-subtracted (Donor 10, Day 22 (First-dose)): >10 IU/mL
